Experimental data taken from paper PMC10657444, “Design and evaluation of tadpole-like conformational antimicrobial peptides” (Communications Biology, 2023).
≈ marks a conversion by molar mass, not a printed value. Like-named read-outs stand apart in the source and are kept apart here.

Tested on: K. pneumoniae ATCC 700603
Test: microbe, parasite or virus in culture
Assay type: cell-based, Klebsiella pneumoniae
Settings: for MIC: Klebsiella pneumoniae
Experimental: MRSA USA 300 and K. pneumoniae ATCC 700603 were employed to assess the development of resistance. From inoculated microtiter panels, an aliquot of the well with the highest concentration permitting growth was taken and back diluted in fresh media to a turbidity of a 0.5 McFarland standard. This suspension was then further diluted and used to inoculate a fresh MIC panel resulting in a final concentration of 5 × 10^6 CFU/mL. Panels were incubated according to CLSI guidelines (M07, 11th edition, 2018), MICs were recorded and the next inoculum was prepared from the well containing the highest concentration of drug that allowed growth in identical fashion as described above.

In the case of `O=C(O)c1cn(C2CC2)c2cc(N3CCNCC3)c(F)cc2c1=O` [ciprofloxacin, reference compound], the MIC (ATCC700603, 0 h, read-out: Concentration (MIC in drug resistance assay), K. pneumoniae ATCC 700603, day 0) was 0.25 µg/mL (≈ 0.754 µM), the MIC (ATCC700603, 24 h, read-out: Concentration (MIC in drug resistance assay), K. pneumoniae ATCC 700603, day 1) was 0.5 µg/mL (≈ 1.51 µM) and the MIC (ATCC700603, 48 h, read-out: Concentration (MIC in drug resistance assay), K. pneumoniae ATCC 700603, day 2) was 1 µg/mL (≈ 3.02 µM). It also gave an MIC (ATCC700603, 72 h, read-out: Concentration (MIC in drug resistance assay), K. pneumoniae ATCC 700603, day 3) of 0.5 µg/mL (≈ 1.51 µM), an MIC (ATCC700603, 96 h, read-out: Concentration (MIC in drug resistance assay), K. pneumoniae ATCC 700603, day 4) of 1 µg/mL (≈ 3.02 µM) and an MIC (ATCC700603, 120 h, read-out: Concentration (MIC in drug resistance assay), K. pneumoniae ATCC 700603, day 5) of 0.5 µg/mL (≈ 1.51 µM). The MIC (ATCC700603, 144 h, read-out: Concentration (MIC in drug resistance assay), K. pneumoniae ATCC 700603, day 6) was 1 µg/mL (≈ 3.02 µM), the MIC (ATCC700603, 168 h, read-out: Concentration (MIC in drug resistance assay), K. pneumoniae ATCC 700603, day 7) was 1 µg/mL (≈ 3.02 µM) and the MIC (ATCC700603, 192 h, read-out: Concentration (MIC in drug resistance assay), K. pneumoniae ATCC 700603, day 8) was 2 µg/mL (≈ 6.04 µM). It also gave an MIC (ATCC700603, 216 h, read-out: Concentration (MIC in drug resistance assay), K. pneumoniae ATCC 700603, day 9) of 1 µg/mL (≈ 3.02 µM), an MIC (ATCC700603, 240 h, read-out: Concentration (MIC in drug resistance assay), K. pneumoniae ATCC 700603, day 10) of 1 µg/mL (≈ 3.02 µM) and an MIC (ATCC700603, 264 h, read-out: Concentration (MIC in drug resistance assay), K. pneumoniae ATCC 700603, day 11) of 2 µg/mL (≈ 6.04 µM). For the same compound, the MIC (ATCC700603, 288 h, read-out: Concentration (MIC in drug resistance assay), K. pneumoniae ATCC 700603, day 12) was 2 µg/mL (≈ 6.04 µM), the MIC (ATCC700603, 312 h, read-out: Concentration (MIC in drug resistance assay), K. pneumoniae ATCC 700603, day 13) was 2 µg/mL (≈ 6.04 µM) and the MIC (ATCC700603, 336 h, read-out: Concentration (MIC in drug resistance assay), K. pneumoniae ATCC 700603, day 14) was 4 µg/mL (≈ 12.1 µM). For the same compound, the MIC (ATCC700603, 360 h, read-out: Concentration (MIC in drug resistance assay), K. pneumoniae ATCC 700603, day 15) was 4 µg/mL (≈ 12.1 µM), the MIC (ATCC700603, 384 h, read-out: Concentration (MIC in drug resistance assay), K. pneumoniae ATCC 700603, day 16) was 4 µg/mL (≈ 12.1 µM) and the MIC (ATCC700603, 408 h, read-out: Concentration (MIC in drug resistance assay), K. pneumoniae ATCC 700603, day 17) was 4 µg/mL (≈ 12.1 µM). The MIC (ATCC700603, 432 h, read-out: Concentration (MIC in drug resistance assay), K. pneumoniae ATCC 700603, day 18) was 4 µg/mL (≈ 12.1 µM), the MIC (ATCC700603, 456 h, read-out: Concentration (MIC in drug resistance assay), K. pneumoniae ATCC 700603, day 19) was 4 µg/mL (≈ 12.1 µM) and the MIC (ATCC700603, 480 h, read-out: Concentration (MIC in drug resistance assay), K. pneumoniae ATCC 700603, day 20) was 8 µg/mL (≈ 24.1 µM). It also gave an MIC (ATCC700603, 504 h, read-out: Concentration (MIC in drug resistance assay), K. pneumoniae ATCC 700603, day 21) of 4 µg/mL (≈ 12.1 µM), an MIC (ATCC700603, 528 h, read-out: Concentration (MIC in drug resistance assay), K. pneumoniae ATCC 700603, day 22) of 4 µg/mL (≈ 12.1 µM) and an MIC (ATCC700603, 552 h, read-out: Concentration (MIC in drug resistance assay), K. pneumoniae ATCC 700603, day 23) of 4 µg/mL (≈ 12.1 µM). For the same compound, the MIC (ATCC700603, 576 h, read-out: Concentration (MIC in drug resistance assay), K. pneumoniae ATCC 700603, day 24) was 4 µg/mL (≈ 12.1 µM), the MIC (ATCC700603, 600 h, read-out: Concentration (MIC in drug resistance assay), K. pneumoniae ATCC 700603, day 25) was 4 µg/mL (≈ 12.1 µM) and the MIC (ATCC700603, 624 h, read-out: Concentration (MIC in drug resistance assay), K. pneumoniae ATCC 700603, day 26) was 8 µg/mL (≈ 24.1 µM). The MIC (ATCC700603, 648 h, read-out: Concentration (MIC in drug resistance assay), K. pneumoniae ATCC 700603, day 27) was 8 µg/mL (≈ 24.1 µM), the MIC (ATCC700603, 672 h, read-out: Concentration (MIC in drug resistance assay), K. pneumoniae ATCC 700603, day 28) was 8 µg/mL (≈ 24.1 µM) and the MIC (ATCC700603, 696 h, read-out: Concentration (MIC in drug resistance assay), K. pneumoniae ATCC 700603, day 29) was 8 µg/mL (≈ 24.1 µM). It also gave an MIC (ATCC700603, read-out: Concentration (MIC in drug resistance assay), K. pneumoniae ATCC 700603, day 30) of 8 µg/mL (≈ 24.1 µM), an MIC (ATCC700603, read-out: Concentration (MIC in drug resistance assay), K. pneumoniae ATCC 700603, day 31) of 8 µg/mL (≈ 24.1 µM) and an MIC (ATCC700603, read-out: Concentration (MIC in drug resistance assay), K. pneumoniae ATCC 700603, day 32) of 8 µg/mL (≈ 24.1 µM). The MIC (ATCC700603, read-out: Concentration (MIC in drug resistance assay), K. pneumoniae ATCC 700603, day 33) was 8 µg/mL (≈ 24.1 µM), the MIC (ATCC700603, read-out: Concentration (MIC in drug resistance assay), K. pneumoniae ATCC 700603, day 34) was 8 µg/mL (≈ 24.1 µM) and the MIC (ATCC700603, read-out: Concentration (MIC in drug resistance assay), K. pneumoniae ATCC 700603, day 35) was 16 µg/mL (≈ 48.3 µM). It also gave an MIC (ATCC700603, read-out: Concentration (MIC in drug resistance assay), K. pneumoniae ATCC 700603, day 36) of 16 µg/mL (≈ 48.3 µM), an MIC (ATCC700603, read-out: Concentration (MIC in drug resistance assay), K. pneumoniae ATCC 700603, day 37) of 16 µg/mL (≈ 48.3 µM) and an MIC (ATCC700603, read-out: Concentration (MIC in drug resistance assay), K. pneumoniae ATCC 700603, day 38) of 16 µg/mL (≈ 48.3 µM). The MIC (ATCC700603, read-out: Concentration (MIC in drug resistance assay), K. pneumoniae ATCC 700603, day 39) was 16 µg/mL (≈ 48.3 µM), the MIC (ATCC700603, read-out: Concentration (MIC in drug resistance assay), K. pneumoniae ATCC 700603, day 40) was 16 µg/mL (≈ 48.3 µM) and the “increase in MIC after 40 passages” value (serial passage at sub-MIC) was 64 fold.
